Data taken from patent publication EP4792822A1, “USE OF PEPTIDE AMIDE COMPOUND IN PREPARATION OF DRUG FOR […] AND VOMITING” (Haisco Pharmaceutical Group Co., Ltd., priority 2023, dated 2025).

Test system: tumour subjects planned to receive highly emetogenic chemotherapy for the first time
Assay: Example 4: active-controlled dose-finding study of compound 1 injection for the prevention of chemotherapy-induced nausea and vomiting (CINV)
Format: in vivo, patients
Method: Study period: Treatment duration: Within 120 h after the first administration of highly emetogenic chemotherapeutic agents; Follow-up duration: Day 10 ± 1 after the first administration of highly emetogenic chemotherapeutic agents.
Protocol: This study was a multicentre, randomised, double-blind, active-controlled study. About 180 tumour subjects planned to receive highly emetogenic chemotherapy for the first time were randomised in a 1 : 1 : 1 ratio to three groups, with 60 subjects per group. Pre-chemotherapy study drug administration was completed 30 ± 10 min before the start of administration of the highly emetogenic chemotherapeutic agents. The dosing regimen was as follows: administration was performed in the following order: • 1) Compound 1 (placebo)/compound 1: A single dose was administered 30 ± 10 min before the start of administration of highly emetogenic chemotherapeutic agents, via intravenous bolus injection, with an intravenous bolus injection time of not less than 30 s. • 2) Dolasetron mesylate injection/dolasetron mesylate injection matching placebo: After the administration of compound 1/compound 1 (placebo), 5 ml (100 mg) of dolasetron mesylate injection/matching placebo was administered via intravenous bolus injection without dilution, and the infusion line was flushed with normal saline before and after administration. […]

Which overall safety (Example 4) does the source give for `CC(=O)N1CC2(CCN(C(=O)[C@@H](CCCCN)NC(=O)[C@@H](CC(C)C)NC(=O)[C@@H](Cc3ccccc3)NC(=O)[C@H](N)Cc3ccccc3)CC2)C1` [Compound 1, (2R)-N-[(1R)-1-(2-acetyl-2,7-diazaspiro[3.5]nonane-7-carbonyl)-5-amino-pentyl]-2-[[(2R)-2-[[(2R)-2-amino-3-phenyl-propionyl]amino]-3-phenylpropionyl]amino]-4-methyl-pentanamide] here?
The overall safety was “good overall safety”.

What about the “effect on CINV” value (Example 4, with dolasetron/aprepitant/dexamethasone background regimens) of the same compound?
Its value is “preventive and/or ameliorating effect on CINV”.
